Results on 23 molecules are retold here after US8431556B2, “C-21-keto lupane derivatives preparation and use thereof” (Vertex Pharmaceuticals Incorporated, priority 2008, dated 2013).

SMILES strings stand for the structures.

The test system of the first assay is HIV-1 (HIVIIIB). Nature of the assay: HIV-1 replication in MT2 cell line with and without 30% human serum (viral RT activity in supernatant). Conditions: Human immunodeficiency virus 1, MT2, MT-2 cells, with 30% human serum, average IC50 if tested more than once, read-out: MT-2 (HIVIIIB) with 30% HS IC50 range. Type of assay: cell-based. A digest of the protocol: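 MT2 cells infected with HIVIIIB at MOI 0.5 for 3 h, washed, then cultured with serially diluted compound in RPMI/10% FBS, with or without 30% human serum, at 37° C. Compound-containing medium refreshed at day 3. Replication measured as supernatant RT activity at day 5; IC50 and IC90 from curve fits.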
The IC50 is the concentration needed to halve the response being measured. For `CC(C)C1=C2C3CCC4[C@@]5(C)CC[C@H](OC(=O)CC(C)(C)C(=O)O)C(C)(C)C5CC[C@@]4(C)[C@]3(C)CC[C@@]2(C(=O)N2Cc3ccccc3C2)CC1=O` (stereo partly drawn) [9-92, 3β-O-(3′,3′-Dimethylsuccinyl)-21-oxolup-18-en-28-oic acid N-(1,3-dihydro-isoindol-2-yl)-acetamide], the concentration for half-maximal inhibition (IC50) is less than 199 nM.

On to `CC(C)C1=C2[C@H]3CC[C@@H]4[C@@]5(C)CC[C@H](OC(=O)CC(C)(C)C(=O)O)C(C)(C)[C@@H]5CC[C@@]4(C)[C@]3(C)CC[C@@]2(C(=O)NCc2ccccn2)CC1=O` [9-16, 3β-O-(3′,3′-Dimethylsuccinyl)-21-oxolup-18-en-28-oic acid N-pyridin-2-ylmethylamide], for which the IC50 is less than 199 nM.

Turning to `CC(C)C1=C2[C@H]3CC[C@@H]4[C@@]5(C)CC[C@H](OC(=O)CC(C)(C)C(=O)O)C(C)(C)[C@@H]5CC[C@@]4(C)[C@]3(C)CC[C@@]2(C(=O)N2CCC(N)CC2)CC1=O` [9-42], the IC50 is less than 199 nM.

On to `CC(C)OC(=O)NC1CCN(C(=O)[C@@]23CC[C@]4(C)[C@H](CC[C@@H]5[C@@]6(C)CC[C@H](OC(=O)CC(C)(C)C(=O)O)C(C)(C)[C@@H]6CC[C@]54C)C2=C(C(C)C)C(=O)C3)CC1` [9-68, 3β-O-(3′,3′-Dimethylsuccinyl)-21-oxolup-18-en-28-oic acid N-(4-aminocarboxylic acid isopropyl ester-1-piperidine)-acetamide], for which the IC50 was less than 199 nM.

Consider `CC(C)C1=C2[C@H]3CC[C@@H]4[C@@]5(C)CC[C@H](OC(=O)CC(C)(C)C(=O)O)C(C)(C)[C@@H]5CC[C@@]4(C)[C@]3(C)CC[C@@]2(C(=O)NCC(F)(F)F)CC1=O` [9-71, 3β-O-(3′,3′-Dimethylsuccinyl)-21-oxolup-18-en-28-oic acid N-(2,2,2-trifluoro-ethyl)-acetamide], for which the IC50 was less than 199 nM.

In the case of `CC(C)C1=C2[C@H]3CC[C@@H]4[C@@]5(C)CC[C@H](OC(=O)CC(C)(C)C(=O)O)C(C)(C)[C@@H]5CC[C@@]4(C)[C@]3(C)CC[C@@]2(C(=O)Nc2cccnc2)CC1=O` [9-26, 3β-O-(3′,3′-Dimethylsuccinyl)-21-oxolup-18-en-28-oic acid N-pyridin-3-yl-acetamide], the concentration for half-maximal inhibition (IC50) is less than 199 nM.

Turning to `CC(C)C1=C2C3CCC4[C@@]5(C)CC[C@H](OC(=O)CC(C)(C)C(=O)O)C(C)(C)C5CC[C@@]4(C)[C@]3(C)CC[C@@]2(C(=O)NC[C@H]2CCCN2)CC1=O` (stereo partly drawn) [9-81, 3β-O-(3′,3′-Dimethylsuccinyl)-21-oxolup-18-en-28-oic acid N-((R)-1-pyrrolidin-2-ylmethyl)-acetamide], the 50% inhibitory concentration (IC50) was less than 199 nM.

`CC(C)NC(=O)NC1CCN(C(=O)[C@@]23CC[C@]4(C)[C@H](CC[C@@H]5[C@@]6(C)CC[C@H](OC(=O)CC(C)(C)C(=O)O)C(C)(C)[C@@H]6CC[C@]54C)C2=C(C(C)C)C(=O)C3)CC1` [9-44, 3β-O-(3′,3′-Dimethylsuccinyl)-21-oxolup-18-en-28-oic acid N-[(4-amino-N′-isopropylureido)-1-piperidine]-acetamide]: the IC50 was less than 199 nM.

For `CC(C)C1=C2[C@H]3CC[C@@H]4[C@@]5(C)CC[C@H](OC(=O)CC(C)(C)C(=O)O)C(C)(C)[C@@H]5CC[C@@]4(C)[C@]3(C)CC[C@@]2(C(=O)N2C3CCC2CN(C(=O)OC(C)(C)C)C3)CC1=O` [9-50, 3β-O-(3′,3′-Dimethylsuccinyl)-21-oxolup-18-en-28-oic acid N-8-acetylamino-3,8-diaza-bicyclo[3.2.1]octane-3-carboxylic acid tert-butyl ester], the IC50 is less than 199 nM.

In the case of `CC(C)C1=C2[C@H]3CC[C@@H]4[C@@]5(C)CC[C@H](OC(=O)CC(C)(C)C(=O)O)C(C)(C)[C@@H]5CC[C@@]4(C)[C@]3(C)CC[C@@]2(C(=O)N(C)Cc2ccccc2)CC1=O` [9-11, 3β-O-(3′,3′-Dimethylsuccinyl)-21-oxolup-18-en-28-oic acid N-methyl-N-benzylamide], the IC50 was less than 199 nM.

Turning to `Cc1ncncc1NC(=O)[C@@]12CC[C@]3(C)[C@H](CC[C@@H]4[C@@]5(C)CC[C@H](OC(=O)CC(C)(C)C(=O)O)C(C)(C)[C@@H]5CC[C@]43C)C1=C(C(C)C)C(=O)C2` [9-55, 3β-O-(3′,3′-Dimethylsuccinyl)-21-oxolup-18-en-28-oic acid N-4-methyl-pyrimidin-5-yl-acetamide], the 50% inhibitory concentration (IC50) is less than 199 nM.

Take `CC(C)C1=C2C3CCC4[C@@]5(C)CC[C@H](OC(=O)CC(C)(C)C(=O)O)C(C)(C)C5CC[C@@]4(C)[C@]3(C)CC[C@@]2(C(=O)NCC2CCC(F)(F)CC2)CC1=O` (stereo partly drawn) [9-93, 3β-O-(3′,3′-Dimethylsuccinyl)-21-oxolup-18-en-28-oic acid N-(4,4-difluoro-cyclohexylmethyl)-acetamide]: the IC50 is less than 199 nM.

`CC(C)C1=C2[C@H]3CC[C@@H]4[C@@]5(C)CC[C@H](OC(=O)CC(C)(C)C(=O)O)C(C)(C)[C@@H]5CC[C@@]4(C)[C@]3(C)CC[C@@]2(C(=O)N2CCN(C(=O)OC(C)(C)C)CC2)CC1=O` [9-27, 3β-O-(3′,3′-Dimethylsuccinyl)-21-oxolup-18-en-28-oic acid N-1-acetyl-piperazine-4-carboxylic acid tert-butyl ester]: the IC50 is less than 199 nM.

For the molecule `CC(=O)NC1CCN(C(=O)[C@@]23CC[C@]4(C)[C@H](CC[C@@H]5[C@@]6(C)CC[C@H](OC(=O)CC(C)(C)C(=O)O)C(C)(C)[C@@H]6CC[C@]54C)C2=C(C(C)C)C(=O)C3)CC1` [9-43, 3β-O-(3′,3′-Dimethylsuccinyl)-21-oxolup-18-en-28-oic acid N-(4-acetylamino-1-piperidine)-acetamide], the IC50 is less than 199 nM.

In the case of `CC(C)C1=C2[C@H]3CC[C@@H]4[C@@]5(C)CC[C@H](OC(=O)CC(C)(C)C(=O)O)C(C)(C)[C@@H]5CC[C@@]4(C)[C@]3(C)CC[C@@]2(C(=O)N2CCN(C)CC2)CC1=O` [9-9, 3β-O-(3′,3′-Dimethylsuccinyl)-21-oxolup-18-en-28-oic acid N-(4-methylpiperazinyl) acetamide], the IC50 is less than 199 nM.

With `CC(=O)NCCNC(=O)[C@@]12CC[C@]3(C)[C@H](CC[C@@H]4[C@@]5(C)CC[C@H](OC(=O)CC(C)(C)C(=O)O)C(C)(C)[C@@H]5CC[C@]43C)C1=C(C(C)C)C(=O)C2` [9-22, 3β-O-(3′,3′-Dimethylsuccinyl)-21-oxolup-18-en-28-oic acid N-(2-acetylamino-ethyl)-acetamide], the concentration for half-maximal inhibition (IC50) is less than 199 nM.

As for `Cc1ccnc(NC(=O)[C@@]23CC[C@]4(C)[C@H](CC[C@@H]5[C@@]6(C)CC[C@H](OC(=O)CC(C)(C)C(=O)O)C(C)(C)[C@@H]6CC[C@]54C)C2=C(C(C)C)C(=O)C3)n1` [9-56, 3β-O-(3′,3′-Dimethylsuccinyl)-21-oxolup-18-en-28-oic acid N-4-methyl-pyrimidin-2-yl-acetamide], the half-inhibitory concentration (IC50) is less than 199 nM.

Turning to `CC(C)C1=C2[C@H]3CC[C@@H]4[C@@]5(C)CC[C@H](OC(=O)CC(C)(C)C(=O)O)C(C)(C)[C@@H]5CC[C@@]4(C)[C@]3(C)CC[C@@]2(C(=O)NCc2cccnc2)CC1=O` [9-17, 3β-O-(3′,3′-Dimethylsuccinyl)-21-oxolup-18-en-28-oic acid N-pyridin-3-ylmethylamide], the IC50 was less than 199 nM.

Consider `CC(=O)N1CCN(C(=O)[C@@]23CC[C@]4(C)[C@H](CC[C@@H]5[C@@]6(C)CC[C@H](OC(=O)CC(C)(C)C(=O)O)C(C)(C)[C@@H]6CC[C@]54C)C2=C(C(C)C)C(=O)C3)CC1` [9-8, 3β-O-(3′,3′-Dimethylsuccinyl)-21-oxolup-18-en-28-oic acid N-(4-acetylpiperazinyl) acetamide], for which the IC50 is less than 199 nM.

`CC(C)C1=C2[C@H]3CC[C@@H]4[C@@]5(C)CC[C@H](OC(=O)CC(C)(C)C(=O)O)C(C)(C)[C@@H]5CC[C@@]4(C)[C@]3(C)CC[C@@]2(C(=O)Nc2ccncn2)CC1=O` [9-64, 3β-O-(3′,3′-Dimethylsuccinyl)-21-oxolup-18-en-28-oic acid N-pyrimidin-4-yl-acetamide]: the IC50 is less than 199 nM.

Consider `CC(C)C1=C2C3CCC4[C@@]5(C)CC[C@H](OC(=O)CC(C)(C)C(=O)O)C(C)(C)C5CC[C@@]4(C)[C@]3(C)CC[C@@]2(C(=O)Nc2ccc(F)cc2)CC1=O` (stereo partly drawn) [9-88, 3β-O-(3′,3′-Dimethylsuccinyl)-21-oxolup-18-en-28-oic acid N-4-fluoro-phen-1-yl acetamide], for which the IC50 was less than 199 nM.

The same assay, now with this note: Human immunodeficiency virus 1, MT2, MT-2 cells, without HS, average IC50 if tested more than once, read-out: MT-2 (HIVIIIB) IC50 range.
Regarding `CC(C)C1=C2[C@H]3CC[C@@H]4[C@@]5(C)CC[C@H](OC(=O)CC(C)(C)C(=O)O)C(C)(C)[C@@H]5CC[C@@]4(C)[C@]3(C)CC[C@@]2(C(=O)NCC2CCCCC2)CC1=O` [9-5, 3β-O-(3′,3′-Dimethylsuccinyl)-21-oxolup-18-en-28-oic acid N-cyclohexyl methylamide], the IC50 is less than 199 nM.

Regarding `COc1ccc(CCNC(=O)[C@@]23CC[C@]4(C)[C@H](CC[C@@H]5[C@@]6(C)CC[C@H](OC(=O)CC(C)(C)C(=O)O)C(C)(C)[C@@H]6CC[C@]54C)C2=C(C(C)C)C(=O)C3)cc1` [9-19, 3β-O-(3′,3′-Dimethylsuccinyl)-21-oxolup-18-en-28-oic acid N-[2-(4-methoxy-phenyl)-ethyl]-acetamide], the IC50 was less than 199 nM.
